From ChEMBL document CHEMBL1201862, “PubChem BioAssay data set” (2004)
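Briefly, cells in 96-well plates were exposed to five compound concentrations for 48 h, and endpoints were estimated by linear interpolation. At the GI50, growth is halved.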 Calls of active or inactive are those of the source. No stated cut-off is given here; in the data, active = GI50 up to about 1.1 µM and inactive = higher.

Tests used:
Experiment in all cases: inhibition of tumour cell growth, NCI panel, 48 h
[1] = system: UACC-257
[2] = system: SF-539
[3] = system: DU-145
[4] = system: HOP-62
[5] = system: MDA-N
[6] = system: A498
[7] = system: SK-MEL-5
[8] = system: SN12C
[9] = system: OVCAR-5
[10] = system: HT-29
[11] = system: COLO 205
[12] = system: HL-60
[13] = system: RPMI-8226
[14] = system: HCT-116
[15] = system: MCF7
[16] = system: SNB-19
[17] = system: Malme-3M
[18] = system: RXF 393
[19] = system: NCI-H522
[20] = system: KM12
[21] = system: NCI-H460
[22] = system: HCC 2998
[23] = system: SR
[24] = system: OVCAR-4
[25] = system: U-251
[26] = system: CCRF-CEM
[27] = system: CAKI-1
[28] = system: M14
[29] = system: MDA-MB-231
[30] = system: EKVX
[31] = system: SK-MEL-2
[32] = system: SK-MEL-28
[33] = system: SW-620
[34] = system: SK-OV-3
[35] = system: A549
[36] = system: NCI-H226
[37] = system: BT-549
[38] = system: MOLT-4
[39] = system: NCI-H23
[40] = system: K562
[41] = system: UACC-62
[42] = system: MDA-MB-435
[43] = system: LOX IMVI
[44] = system: OVCAR-8
[45] = system: Hs-578T
[46] = system: NCI/ADR-RES
[47] = system: PC-3
[48] = system: SF-295
[49] = system: ACHN
[50] = system: HOP-92
[51] = system: 786-0
[52] = system: HCT-15
[53] = system: IGROV-1
[54] = system: SNB-75
[55] = system: TK-10
[56] = system: SF-268
[57] = system: T47D
[58] = system: OVCAR-3
[59] = system: UO-31

Measured: GI50

CC(C)[N+]([O-])(CCCNc1c2ccccc2nc2cccc([N+](=O)[O-])c12)C(C)C
active: [1] 0.064 µM | [2] 0.047 µM | [3] < 0.026 µM | [4] 0.0525 µM | [5] < 0.0342 µM | [6] < 0.0452 µM | [7] < 0.0167 µM | [8] 0.0551 µM | [9] < 0.0395 µM | [10] < 0.0202 µM | [11] < 0.019 µM | [12] < 0.0428 µM | [13] < 0.0179 µM | [14] < 0.0204 µM | [15] < 0.0272 µM | [16] 0.0726 µM | [17] < 0.041 µM | [18] 0.172 µM | [19] 0.0294 µM | [20] 0.065 µM | [21] 0.06 µM | [22] < 0.01 µM | [23] 0.0142 µM | [24] 0.153 µM | [25] < 0.0453 µM | [26] < 0.0412 µM | [27] 0.492 µM | [28] 0.0347 µM | [29] < 0.01 µM | [30] < 0.0367 µM | [31] 0.234 µM | [32] < 0.01 µM | [33] < 0.0258 µM | [34] 0.262 µM | [35] < 0.0282 µM | [36] < 0.0456 µM | [37] < 0.0395 µM | [38] < 0.0181 µM | [39] < 0.0206 µM | [40] < 0.0355 µM | [41] 0.148 µM | [42] < 0.0325 µM | [43] 0.0619 µM | [44] < 0.0458 µM | [45] < 0.0481 µM | [46] 0.581 µM | [47] < 0.0473 µM | [48] < 0.0412 µM | [49] < 0.0441 µM | [50] < 0.0355 µM | [51] 0.0467 µM

Cc1ccc(S(=O)(=O)Nn2c(-c3ccccc3)c(C#N)c(-c3ccc([N+](=O)[O-])cc3)c(C#N)c2=O)cc1
inactive: [1] > 100 µM | [2] > 100 µM | [4] > 100 µM | [5] > 100 µM | [6] > 100 µM | [7] 97.1 µM | [8] > 100 µM | [9] > 100 µM | [10] > 100 µM | [11] > 100 µM | [12] 39.4 µM | [13] 25.8 µM | [53] 70.8 µM | [14] > 100 µM | [15] 61.2 µM | [16] 40.8 µM | [17] > 100 µM | [18] > 100 µM | [19] 13.3 µM | [20] > 100 µM | [21] > 100 µM | [22] > 100 µM | [24] > 100 µM | [25] > 100 µM | [26] 32.1 µM | [27] > 100 µM | [28] > 100 µM | [54] 96.6 µM | [29] > 100 µM | [30] > 100 µM | [31] > 100 µM | [32] > 100 µM | [33] > 100 µM | [34] > 100 µM | [35] > 100 µM | [36] > 100 µM | [37] > 100 µM | [55] > 100 µM | [38] 45.6 µM | [41] > 100 µM | [42] > 100 µM | [43] > 100 µM | [56] > 100 µM | [44] > 100 µM | [45] 88.7 µM | [46] > 100 µM | [47] > 100 µM | [48] > 100 µM | [49] > 100 µM | [50] 30.1 µM | [51] > 100 µM
> 100 µM: [52]

O=C(CNC(=O)c1ccccc1)Oc1c(Cl)c(Cl)c(Cl)c(Cl)c1Cl
inactive: [1] 19.6 µM | [2] 28.2 µM | [3] 23.4 µM | [4] 38.3 µM | [57] 42.6 µM | [8] 32.1 µM | [9] 47.2 µM | [10] 30.5 µM | [11] 35 µM | [12] 24.6 µM | [13] 38.7 µM | [53] 27.8 µM | [14] 56.4 µM | [15] 40.2 µM | [16] 44.9 µM | [17] 28.8 µM | [18] 39.4 µM | [19] 29.6 µM | [20] 22.4 µM | [21] 38.5 µM | [22] 27.7 µM | [23] 32.4 µM | [24] 45.5 µM | [25] 26.7 µM | [26] 38.7 µM | [27] 25.8 µM | [28] 64.9 µM | [54] 45.5 µM | [29] 22.9 µM | [30] 21.5 µM | [31] 21 µM | [32] 39 µM | [33] 21.6 µM | [34] 72.4 µM | [35] 29 µM | [36] 29 µM | [37] 20.5 µM | [55] 40.4 µM | [38] 29 µM | [39] > 100 µM | [40] 28.2 µM | [41] 21.9 µM | [42] 36.1 µM | [43] 35 µM | [56] 40.6 µM | [44] 22.1 µM | [58] 25.4 µM | [45] 24.9 µM | [46] 31 µM | [47] 24.7 µM | [59] 22 µM | [48] 33.2 µM | [49] 25.2 µM | [51] 50.5 µM
30.6 µM: [52]
